In patent US9205141B2, “Immunomodulatory methods and systems for treatment and/or prevention of hypertension” (Cardio Vax, LLC, priority 2010, dated 2015):

Key:
[1] = system: naïve male apoE (−/−) recipient mice; experiment: Adoptive transfer of cells from immunized donors to naive apoE (−/−) recipients; format: in vivo
From the text: Adoptive transfer experiment Male apoE (−/−) mice on regular chow received subcutaneous immunization as described in previous paragraph and were sacrificed at 13 weeks of age as donors. Splenocytes from the same treatment group were pooled before cell isolation. Donor CD8(+) T-cells, CD4(+)CD25(+) T-cells or B-cells were isolated using Dynabeads FlowComp (Invitrogen) according to the manufacturer's protocols. CD4(+) T-cells were negatively selected from the splenocytes followed by positive selection of CD4(+)CD25(+) cells. B cells were negatively isolated whereas CD8(+) T-cells were positively isolated first and released from beads. The purity of pooled CD8(+) T-cells, CD4(+)CD25(+) T-cells and B-cells was 90%, 80% and 70%, respectively. The isolated CD8(+) T-cells (1×10^6 cells/mouse), CD4(+)CD25(+) T-cells (1×10^5 or 3×10^5 cells/mouse) or B-cells (2×10^7 cells/mouse) were then adoptively transferred to naïve male apoE (−/−) recipient mice at 6-7 weeks of age via tail vein injection. In the published literatures of vascular biology, the number of adoptively transferred lymphocytes varied greatly. For B-cells transfer, the number of 2×10^7 cells/mouse was chosen based on two prior reports. (11),(12) For CD4(+)CD25(+) T-cells transfer, the number of cells transferred ranged from 5×10^4 cells/mouse to 1×10^6 cells/mouse in the published literature. […]

[2] = system: AngII-infused male apoE KO mice; experiment: Blood pressure and heart rate in angiotensin II-infused apoE KO mice after P210 immunization; format: in vivo; conditions: apoE KO mice immunized s.c. 100 μg at 7, 10, 12 weeks; AngII 1000 ng/Kg/min; 4 weeks after pump implantation
Method: Saline was delivered to the control group.
Angiotensin II infusion via implanted osmotic pump was started at 10 weeks of age. Mice were euthanized at 14 weeks of age. Blood pressure was measured throughout the duration of experiment.

[3] = system: CD8+CD25− T cells co-cultured with DCs; experiment: Presentation of p210 by DCs to CD8+CD25− T cells in co-culture; format: cell-based; conditions: 48 hours, DCs treated with LPS, compared to untreated or LPS only treated co-cultures
From the text: The p210 peptide contains the proteoglycan binding site of the apoB-100 molecule. This peptide is a cell-penetrating peptide capable of efficiently delivering antigens for cross-presentation to cytotoxic CD8^+ T cells.^53 Applicants therefore assessed activation of CD8^+CD25^− T cells co-cultured with DCs loaded with p210 and matured with LPS.

[4] = system: BMDCs; experiment: Endocytosis of FITC-labeled p210 by DCs in vitro; format: cell-based, mice; conditions: FITC fluorescence in BMDCs
From the text: Peptide loading on BMDCs was defined using p210 labeled with FITC (FITC conjugating kit from Pierce).

[5] = system: bone marrow derived DCs; experiment: Cytolytic activity of CD8(+) T cells from immunized mice against dendritic cells in vitro; format: cell-based
Method: In Vitro Generation of BM-Derived dendritic cells (BMDCs) The method for generating BMDC with GM-CSF was adapted from previous publication with modification. (19) Briefly, bone marrow cells from femurs and tibiae of male apoE−/− mice were plated into 10 cm culture plates (Falcon) with 20 ml complete RPMI-1640 containing 10 ng/ml GM-CSF (R&D Systems) and 10 ng/ml IL-4 (Invitrogen). Cells were washed and fed on day 3 and day 5 by removing the old medium followed by replenishing with fresh culture medium with GM-CSF and IL-4. On day 8, the immature DC appeared as non-adherent cells under the microscope and harvested by vigorous pipetting and subcultured into new culture plates with 2×10^5 DCs in 1.5 ml medium.
CD8(+) T-cells were negatively isolated using a CD8 selection Dynabeads kit (Invitrogen) per manufacturer's protocol. The selected CD8(+) T-cells were then co-culture with DCs in a CD8:DC ratio of 3:1. A series of pilot studies has been performed to determine the optimal CD8:DC ratio for this assay. After co-culture for 4 hours, cells were collected and processed for flow cytometric determination of CD11c and 7-AAD by LSR II flow cytometer (BD Biosciences) and data was analyzed with Summit V4.3 software. Dendritic cell death without CD8(+) T-cells in the co-culture was used as baseline and percentage of specific lysis of cells was calculated using a method described previously. (20)
One week after the third immunization, mice were euthanized to collect spleen CD8^+ T cells. Bone-marrow derived DCs were differentiated from naïve apoE−/− mice and used as target cells. […]
Applicants therefore assessed the effect of the vaccine on cytotoxic activity of CD8^+ T cells against syngeneic bone marrow-derived DCs. […] Cells were collected and processed for flow cytometric determination of CD11c^+ and 7-AAD 4 hours later.^20 Dendritic cell death without CD8^+ T cells in the co-culture was used as baseline and percentage of specific lysis of cells was calculated using a method described previously.^20

[6] = system: male apoE (−/−) mice; experiment: Athero-protective effect of p210 immunization in apoE (−/−) mice on high cholesterol chow; format: in vivo; conditions: 100 μg dose compared to 25 or 50 μg dose
From the text: Selection of peptides and their preparation for immunization The establishment and screening of human apoB-100 peptides has been reported (8). Based on Applicants pilot experiments and prior reports, (9),(10) Applicants selected peptide 210 (p210, KTTKQ SFDLS VKAQY KKNKH—SEQ ID NO: 210) as a candidate immunogen. Native p210 peptide (Euro-Diagnostica AB, Sweden) was conjugated to cationic bovine serum albumin (cBSA) as carrier using a method described previously. (3),(4) Alum was used as adjuvant and mixed with peptide/cBSA conjugate with 1:1 ratio in volume. Peptide conjugation and mixing with alum were prepared fresh prior to each immunization.
Immunization protocols Male apoE (−/−) mice (Jackson Laboratories) were housed in an animal facility accredited by the American Association of Accreditation of Laboratory Animal Care and kept on a 12-hour day/night cycle with unrestricted access to water and food. The Institutional Animal Care and Use Committee of Cedars-Sinai Medical Center approved the experimental protocols. […] Mice, maintained on normal chow diet, received subcutaneous primary immunization in the dorsal area between scapulas at 6-7 weeks of age, followed by a booster at 9 and 12 weeks of age. One week after last booster, diet was switched to high cholesterol chow (TD 88137, Harlan-Teklad) and continued until euthanasia at the age of 25 weeks. […]

[7] = CD8(+) T-cells from immunized mice vs PBS or cBSA/alum

KTTKQ SFDLS VKAQY KKNKH (KTTKQSFDLSVKAQYKKNKH) [p210, amino acids 3136-3155 of human apoB-100]
lesion size in recipients of CD4(+)CD25(+) T-cells ([1]; 1×10^5 cells/mouse): no difference in lesion size | lesion size in recipients of CD4(+)CD25(+) T-cells ([1]; 3×10^5 cells/mouse): did not reduce lesion sizes | reduction in blood pressure [2]: about 11% | activated CD8+CD25+ T cells after co-culture with p210-loaded DCs [3]: significantly increased CD8^+CD25^+ T cells | uptake of FITC-labeled p210 by dendritic cells [4]: endocytosed by DCs | granzyme B expression of CD8(+) T-cells [5, 7]: increased granzyme B expression | perforin level of CD8(+) T-cells [5, 7]: no difference in perforin level | cytolytic activity after depletion of CD25+ cells ([5]; CD8+ T cells depleted of CD25+ cells): abrogated the increased cytolytic activity | athero-reduction by dose (pilot experiment) [6]: optimum athero-reduction
